From PubChem BioAssay AID540269 (Sanford-Burnham Center for Chemical Genomics, 2011)
Activity calls are given as the source filed them. The rule behind the calls is not given here.

Biological target: glucose-6-phosphate dehydrogenase-6-phosphogluconolactonase (Plasmodium falciparum 3D7)
Assay: inhibition of P. falciparum G6PD activity – biochemical, kinetic NADPH detection, orthogonal assay, dose response (AID 540269)
Conditions: purified PfG6PD-6PGL

Question: Which IC50 does the source give for `CC(NC(=O)c1sc2cc([N+](=O)[O-])ccc2c1Cl)C(C)(C)C` (stereo unspecified) here?
Answer: > 80 µM (inactive)

Question: For `CN1CCN(C(=O)c2sc(=S)n(-c3ccccc3)c2N)CC1`, which IC50 is on record?
Answer: 50.3 µM

Question: How did the IC50 turn out when `O=C1OC(c2ccc3ccccc3c2O)(c2ccc3ccccc3c2O)c2ccccc21` was run?
Answer: > 80 µM (inactive)

Question: With `CCOC(=O)c1sc(NC(=O)CSc2nnc(Cc3ccccc3)o2)c(C#N)c1C` as the compound, how does the IC50 read?
Answer: > 80 µM (inactive)

Question: With `Cc1ccc(/C=C2\C(=O)NC(=S)N(c3ccccc3F)C2=O)s1` as the compound, how does the IC50 read?
Answer: > 80 µM (inactive)

Question: `S=C(NN=Cc1ccccn1)N(Cc1ccccn1)Cc1ccccn1` was tested. Which IC50 did it give?
Answer: 29.5 µM

Question: Which IC50 does the source give for `COc1cccc(/C=N/NC(=O)CSc2cccc3cccnc23)c1` here?
Answer: 21.7 µM

Question: With `O=c1c2cc(F)ccc2sn1-c1ccccc1Cl` as the compound, how does the IC50 read?
Answer: 12.7 µM

Question: For `CC(C)c1cc2c(c(O)c1O)[C@@]13CCCC(C)(C)C1CC2OC3=O` (stereo partly specified), which IC50 is on record?
Answer: 58.4 µM

Question: Which IC50 does the source give for `Cc1cc(C)c(NC(=S)NCC2CCN(C(C)c3ccccc3)C2)c(C)c1` (stereo unspecified) here?
Answer: > 80 µM (inactive)

Question: For `CN(C)c1nc(=NCc2cccs2)ss1`, which IC50 is on record?
Answer: > 80 µM (inactive)

Question: How did the IC50 turn out when `NC1CCc2cc(O)c(O)cc2C1` (stereo unspecified) was run?
Answer: 34.5 µM

Question: How did the IC50 turn out when `O=C1C=C(NCCc2cc(Br)c(O)c(Br)c2)C(=O)c2ncccc21` was run?
Answer: > 80 µM (inactive)

Question: `Cc1[nH]c2ccccc2c1/C=N/Nc1nncn1N` was tested. Which IC50 did it give?
Answer: > 80 µM (inactive)

Question: How did the IC50 turn out when `CC(C)Sc1nnc(NC(=O)c2ccc3c(c2)OCO3)s1` was run?
Answer: 29.5 µM

Question: How did the IC50 turn out when `O=C(Cn1sc2ccccc2c1=O)NC12CC3CC(CC(C3)C1)C2` was run?
Answer: 13.5 µM

Question: Which IC50 does the source give for `Cn1sc2ccccc2c1=O` here?
Answer: 39.5 µM

Question: Which IC50 does the source give for `O=C(O)C(Cc1ccccc1)N1C(=O)C=CC1=O` (stereo unspecified) here?
Answer: 36.2 µM

Question: With `COc1ccc(NC2CCCN(Cc3cccc4cnccc34)C2)cc1OC` (stereo unspecified) as the compound, how does the IC50 read?
Answer: > 80 µM (inactive)

Question: `CCOc1ccc2ccccc2c1/C=N/NC(=O)c1ccncc1` was tested. Which IC50 did it give?
Answer: > 80 µM (inactive)

Question: How did the IC50 turn out when `CN(C)c1ncc(C2=C(Cl)C(=O)C(N3CCCC3)=C(Cl)C2=O)s1` was run?
Answer: 35.6 µM

Question: How did the IC50 turn out when `O=C(CNC(=O)c1ccccc1)NCC(=O)OCC(=O)c1ccc([N+](=O)[O-])cc1` was run?
Answer: 67.1 µM

Question: `COc1cccc(CNc2ccc3[nH]c(=O)[nH]c3c2)c1OCc1ccc(F)cc1` was tested. Which IC50 did it give?
Answer: > 80 µM (inactive)

Question: For `COc1cc(-c2cc(=O)c3c(O)c(OC)c(OC)c(O)c3o2)ccc1O`, which IC50 is on record?
Answer: 40.3 µM

Question: With `C/C(Cn1nnc([N+](=O)[O-])n1)=N\NC(=O)c1ccccc1O` as the compound, how does the IC50 read?
Answer: 46.3 µM

Question: `C=C1C(=O)O[C@@H]2C[C@@H](C)[C@@H]3C=CC(=O)[C@@]3(C)[C@@H](OC(=O)CC(=O)O[C@H]3[C@@H]4C(=C)C(=O)O[C@@H]4C[C@@H](C)[C@@H]4C=CC(=O)[C@]43C)[C@H]12` was tested. Which IC50 did it give?
Answer: > 80 µM (inactive)

Question: `CCN(CC)CCNC(=O)CCCCn1c(=S)[nH]c2c([nH]c3ccc(OC)cc32)c1=O` was tested. Which IC50 did it give?
Answer: 15.7 µM

Question: For `CCn1c2ccccc2c2nc3cc(S(=O)(=O)N4CCOCC4)ccc3nc21`, which IC50 is on record?
Answer: > 80 µM (inactive)

Question: How did the IC50 turn out when `Cc1ccc(/C=C/C(=O)Nc2ccc([N+](=O)[O-])c(NC(=O)/C=C/c3ccc(C)o3)c2)o1` was run?
Answer: > 80 µM (inactive)

Question: Which IC50 does the source give for `CN1CCc2cc(O)cc3c2[C@H]1Cc1ccc(O)c(O)c1-3` here?
Answer: > 80 µM (inactive)

Question: Which IC50 does the source give for `Nc1c(C(=O)Nc2ccc(F)cc2)sc(=S)n1-c1ccccc1F` here?
Answer: > 80 µM (inactive)

Question: For `CC(Cc1ccc(O)c(O)c1)C(C)Cc1ccc(O)c(O)c1` (stereo unspecified), which IC50 is on record?
Answer: 54.9 µM

Question: Which IC50 does the source give for `O=C(Nc1ccccc1C(=O)N/N=C/c1ccco1)c1ccccc1Cl` here?
Answer: > 80 µM (inactive)

Question: How did the IC50 turn out when `Cc1ccccc1-n1c(-c2ccc3ccccc3n2)n[nH]c1=S` was run?
Answer: 51.3 µM

Question: How did the IC50 turn out when `O=C1C(c2cc(=O)c3ccccc3[nH]2)=C(O)c2ccccc21` was run?
Answer: > 80 µM (inactive)

Question: How did the IC50 turn out when `Cc1cc(C)nc(/N=C(\N)Nc2ccccc2-c2ccccc2)n1` was run?
Answer: > 80 µM (inactive)

Question: For `COc1cc(/C=C2\SC(c3ccc(C)cc3)=NC2=O)cc(OC)c1O`, which IC50 is on record?
Answer: > 80 µM (inactive)

Question: How did the IC50 turn out when `Cc1ccc(-n2sc3cc(F)ccc3c2=O)c(C)c1` was run?
Answer: 12.5 µM

Question: With `Clc1ccc2nc(-c3ccc(Br)s3)cn2c1` as the compound, how does the IC50 read?
Answer: > 80 µM (inactive)

Question: With `C[C@]12CC[C@@H]3c4ccc(O)c(O)c4CC[C@H]3[C@@H]1CC[C@@H]2O` as the compound, how does the IC50 read?
Answer: 41.3 µM

Question: How did the IC50 turn out when `COc1ccc(C(=O)c2c(C(F)(F)F)oc3c2C(=O)c2ccccc2C3=O)cc1` was run?
Answer: > 80 µM (inactive)
